One series addresses PI3Kα (Homo sapiens, UniProt P42336). In words: Kinase experiment (ADP-Glo, luminescence), PI3Kα. The class given is biochemical. To be noted: final concentration of ATP 10 μM; read-out: IC50 of compound to PI3K (nM) α. How it is done:
PI3Kα, PI3Kβ, PI3Kγ kinases undergo enzymatic reactions with their substrates ATP and PIP2:3PS, the amount of the product detected by ADP-Glo agent and luminescence method were used to reflect the enzymatic activities of PI3Kα, PI3Kβ, PI3Kγ (the final concentration of ATP is 10 μM). The above methods were used to test the inhibitory activity of certain compound of the present invention on PI3Kα, PI3Kβ and PI3Kγ kinase.
Agent: Basic kinase buffer (pH 7.5); PI3Kα, PI3Kβ, PI3Kγ kinase solutions; PIP2:3PS and ATP solutions; ADP-Glo kit (containing 10 mM MgCl2).
Wherein, the buffer composition: 50 mM Hepes (pH 7.2-7.5), 3 mM MgCl2, 1 mM EGTA, 0.03% CHAPS, 100 mM NaCl, 2 mM DTT; • Compound preparation: The tested compound was diluted to a specific concentration with 100% DMSO. • Process: 1) PI3Kα, PI3Kβ, or PI3Kγ protein solution were dispensed to a 384-well assay plate (6008280, PerkinElmer), and centrifuged at 1000 rpm for 1 minute. • 2) Tested compound, negative control DMSO or positive control BYL719 was dispensed to the above-mentioned 384-well assay plate with the kinase, centrifuged at 1000 rpm for 1 min, and incubated at 25° C. for 15 mins. • 3) PIP2:3PS&ATP solution was added to the above-mentioned 384-well assay plate, centrifuged at 1000 rpm for 1 min, incubated at 25° C. for 60 mins. • 4) 5 μL of ADP-Glo agent (10 mM MgCl2 contained) was transferred to the 384-well assay plate, centrifuged at 1000 rpm for 1 min, incubated at 25° C. for 40 mins. • 5) 10 μL of Detection agent was transferred to the 384-well assay plate, centrifuged at 1000 rpm for 1 min, incubated at 25° C. for 40 mins. • 6) RLU (Relative luminescence unit) value was measured by Envision multifunctional plate reader. The RLU value was used to characterize the degree of reaction between the enzyme and the substrate, and calculate the IC50 value. • 7) Data analysis:
Compound inhibition rate(% inh)=(negative control RLU-tested compound RLU)/(negative control RLU-positive control RLU)*100%
(§1) The IC50 (half inhibitory concentration) of the compound was obtained using the following nonlinear fitting formula:
Y=minimum inhibition rate+(max inhibition rate-minimum inhibition rate)/(1+10^((Log IC50−X)*slope)); wherein, X is the log value of the concentration of the tested compound, Y is the inhibition rate of tested compound(% inh).

In the next series the test system is human tumor cells MCF-7. In words: Cell proliferation assay (CellTiter Glo), MCF-7. The class given is cell-based. The following applies: MCF7, MCF-7 cells incubated for 120 h, read-out: IC50(μM) of compound on MCF cell. The procedure:
(§2) Method: The anti-proliferative effects on human tumor cells MCF-7 and HGC27 of certain compounds of the present invention were evaluated by CellTiter Glo assay.
(§3) Detection method: MCF-7 cells were suspended in DMEM culture medium, the cell concentration of which was adjusted to 25000 cells/mL; HGC27 cells were suspended in RPMI-1640 culture medium, the cell concentration of which was adjusted to 5000 cells/mL. 100 μL of cell suspension was dispensed to a 96-well assay plate and placed in a CO2 incubator overnight. The tested compounds were dissolved in DMSO, and 3-fold derail dilution was performed to obtain 10-point concentrations. the 10-point concentrations of the tested compounds or or negative control was transferred to the well containing 100 μL of culture medium respectively, incubated at 37° C., 5% CO2, the HGC27 cells were incubated for 96 h, MCF-7 cells were incubated for 120 h. Then 100 μL of CellTiter-Glo agent was added to the above-mentioned 96-well assay plate, incubated at room temperature for 10 minutes to allow stable luminescence signal. VICTOR™ X5 instrument was used to record RLU (relative luminescence unit), and then calculate the IC50 values were calculated.
(§4) Compound inhibition rate(% inh)=100% −(tested compound RLU-blank control RLU)/(negative control RLU-blank control RLU)*100%
(§5) Blank control: blank culture medium, with no compound or cell;
as §1
(§6) Y=minimum inhibition rate+(max inhibition rate-minimum inhibition rate)/(1+10^((Log IC50−X)*slope)); wherein, X: the log value of the concentration of the tested compound; Y: the inhibition rate of the tested compound(% inh).

Another series relates to human tumor cells HGC27. In words: Cell proliferation assay (CellTiter Glo), HGC27. The class given is cell-based. The following applies: HGC-27, HGC27 cells incubated for 96 h, read-out: IC50(μM) of ompound on HGC-27cell. How it is done:
as §2, §3, §4, §5, §1, §6
In general terms: ATP-based viability assays read luminescence as a measure of living cells.

Series [1] can be described thus: Pharmacokinetic test in male SD rats. The class given is in vivo. The following applies: rat, plasma; for clearance: intravenous injection, 2 mg/kg; for AUC / Cmax: po, gavage, 10 mg/kg. The procedure: Method: 42 male SD rats, weight: 150-300 g. Divided into 7 groups randomly, with 6 rats in each group. Among the 6 rats in each group, three of them were administrated a single intravenous injection of […] of the example compound, the other three were given intragastric administration of […] of the example compound, blood was collected from the orbital venous plexus at designated time points, plasma was separated, and stored in a −80° C. refrigerator for later use.
The protein of the resultant plasma was precipitated by acetonitrile, the supernatant was extracted, and mixed with water at the ratio of 1:1, took 10 μL of which for LC-MS/MS detection, and calculated the average was calculated.

We go through 9 molecules from patent US20230053342A1, “IMIDAZOLIDINONE COMPOUND, PREPARATION METHOD THEREFOR AND USE THEREOF” (BETTA PHARMACEUTICALS CO., LTD, priority 2019, published 2023).

Where only a bound is given, the exact number is not on record here.

Sequence of PI3Kα (P42336 whole entry): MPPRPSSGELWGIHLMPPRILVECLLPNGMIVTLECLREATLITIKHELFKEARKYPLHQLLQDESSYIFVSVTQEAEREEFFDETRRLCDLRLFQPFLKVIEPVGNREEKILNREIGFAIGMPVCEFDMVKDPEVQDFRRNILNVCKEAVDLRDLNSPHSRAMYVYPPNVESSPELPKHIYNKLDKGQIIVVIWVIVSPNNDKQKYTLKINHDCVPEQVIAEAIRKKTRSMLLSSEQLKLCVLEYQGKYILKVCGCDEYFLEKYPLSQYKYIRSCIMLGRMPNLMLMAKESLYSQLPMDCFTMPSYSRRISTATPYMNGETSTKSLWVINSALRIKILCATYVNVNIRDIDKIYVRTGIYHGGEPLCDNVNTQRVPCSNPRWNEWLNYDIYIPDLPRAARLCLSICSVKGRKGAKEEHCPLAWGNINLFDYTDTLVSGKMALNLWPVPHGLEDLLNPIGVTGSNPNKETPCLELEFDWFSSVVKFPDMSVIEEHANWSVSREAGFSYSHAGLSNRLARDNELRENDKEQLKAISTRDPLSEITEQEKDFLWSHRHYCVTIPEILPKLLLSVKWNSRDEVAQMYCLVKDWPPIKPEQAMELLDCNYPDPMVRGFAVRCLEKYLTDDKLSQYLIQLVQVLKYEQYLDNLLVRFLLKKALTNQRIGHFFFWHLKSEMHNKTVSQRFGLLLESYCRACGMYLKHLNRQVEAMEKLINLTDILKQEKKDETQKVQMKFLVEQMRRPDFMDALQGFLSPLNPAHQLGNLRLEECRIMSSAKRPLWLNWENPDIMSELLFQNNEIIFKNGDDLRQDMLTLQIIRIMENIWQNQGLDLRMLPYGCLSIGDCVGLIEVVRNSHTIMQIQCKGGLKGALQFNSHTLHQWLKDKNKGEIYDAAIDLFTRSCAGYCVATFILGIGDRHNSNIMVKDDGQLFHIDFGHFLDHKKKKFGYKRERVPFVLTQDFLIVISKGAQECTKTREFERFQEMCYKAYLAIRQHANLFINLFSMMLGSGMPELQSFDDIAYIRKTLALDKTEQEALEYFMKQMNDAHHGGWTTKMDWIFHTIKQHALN
Sequence of PI3Kα (P27986 whole entry partner): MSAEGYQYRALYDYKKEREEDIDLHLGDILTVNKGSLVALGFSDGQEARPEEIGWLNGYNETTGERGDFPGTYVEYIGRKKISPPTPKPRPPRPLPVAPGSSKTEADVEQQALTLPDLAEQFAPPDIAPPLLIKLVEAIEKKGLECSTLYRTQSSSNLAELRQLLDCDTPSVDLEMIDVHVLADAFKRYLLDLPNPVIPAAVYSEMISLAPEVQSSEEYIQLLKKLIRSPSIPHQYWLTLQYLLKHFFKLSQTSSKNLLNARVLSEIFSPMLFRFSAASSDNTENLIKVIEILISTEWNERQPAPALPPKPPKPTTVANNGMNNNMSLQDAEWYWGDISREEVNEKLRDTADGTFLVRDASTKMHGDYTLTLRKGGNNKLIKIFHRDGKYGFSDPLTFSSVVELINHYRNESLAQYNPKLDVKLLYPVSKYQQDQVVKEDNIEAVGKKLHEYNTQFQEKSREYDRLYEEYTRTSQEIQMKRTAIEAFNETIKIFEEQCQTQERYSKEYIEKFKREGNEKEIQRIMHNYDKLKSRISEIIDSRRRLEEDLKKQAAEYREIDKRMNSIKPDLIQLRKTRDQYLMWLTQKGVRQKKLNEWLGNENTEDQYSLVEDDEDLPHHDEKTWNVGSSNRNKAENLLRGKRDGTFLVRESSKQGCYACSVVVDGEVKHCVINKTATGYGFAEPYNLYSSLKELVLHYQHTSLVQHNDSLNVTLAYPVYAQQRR

As usually defined, the IC50 is the concentration needed to halve the response being measured. Take `CCN1C(=O)C(C(C)C)N(c2cn3c(n2)-c2ccc(N4CCC[C@H]4C(N)=O)cc2OCC3)C1=O` (stereo partly drawn) [Example 7, (2S)-1-(2-(3-ethyl-5-isopropyl-2,4-dioxoimidazolidin-1-yl)-5,6-dihydrobenzo[f]imidazo [1,2-d] [1,4]oxazepin-9-yl) pyrrolidine-2-carboxamide]: the IC50 on PI3Kα is 5 to 20 nM.

For the molecule `CN1C(=O)CN(c2cn3c(n2)-c2ccc(N4CCC[C@H]4C(N)=O)cc2OCC3)C1=O` [Example 28, (2S)-1-(2-(3-methyl-2,4-dioxoimidazolidin-1-yl)-5,6-dihydrobenzo[f]imidazo[1,2-d] [1,4]oxazepin-9-yl)pyrrolidine-2-carboxamide], the IC50 is 0.468 µM in the series on human tumor cells MCF-7 and 3.92 µM in the series with human tumor cells HGC27.

By clearance is commonly meant the rate of elimination divided by the concentration. A high value points to a high capacity for elimination. By AUC is commonly meant the area under the concentration-time curve, a measure of exposure. A higher AUC goes with high exposure. One may read the Cmax as the highest concentration seen after dosing. `C[C@@H]1COC(=O)N1c1cn2c(n1)-c1ccc(N3CCC[C@H]3C(N)=O)cc1OCC2` [Control compound 1, (2S)-1-(2-((4R)-4-methyl-2-oxooxazolidin-3-yl)-5,6-dihydrobenzo[f]imidazo[1,2-d] [1,4]oxazepin-9-yl)pyrrolidine-2-carboxamide, reference compound]: the IC50 with human tumor cells MCF-7 is 0.444 µM. Moreover, the IC50 with human tumor cells HGC27 came out at 1.58 µM. For the same molecule, in series [1], the clearance came out at 16.6 mL/min/kg, the AUC was 7880 ng·h/mL and the peak level (Cmax) was 1960 ng/mL.

Regarding `CC(C)(c1cc(-c2cn3c(n2)-c2ccc(N4CCC[C@H]4C(N)=O)cc2OCC3)ccn1)C(F)(F)F` [Control compound 3, (2S)-1-(2-(2-(1,1,1-trifluoro-2-methylpropan-2-yl)pyridn-4-yl)-5,6-dihydrobenzo[f]imidazo[1,2-d][1,4]oxazepin-9-yl)pyrrolidine-2-carboxamide, reference compound], the IC50 was 0.519 µM in the series on human tumor cells MCF-7 and 2.07 µM with human tumor cells HGC27.

`CC(C)C1C(=O)N(c2ccccc2)C(=O)N1c1cn2c(n1)-c1ccc(N3CCC[C@H]3C(N)=O)cc1OCC2` (stereo partly drawn) [Example 9, (2S)-1-(2-(5-isopropyl-2,4-dioxo-3-phenylimidazolidine-1-yl)-5,6-dihydrobenzo[f]imidazo[1,2-d] [1,4]oxazepin-9-yl)pyrrolidine-2-carboxamide]: the IC50 on PI3Kα is 5 to 20 nM; with human tumor cells MCF-7, 0.142 µM.

Regarding `CC(C)C1C(=O)N(C(C)C)C(=O)N1c1cn2c(n1)-c1ccc(N3CCC[C@H]3C(N)=O)cc1OCC2` (stereo partly drawn) [Example 23, (2S)-1-(2-(3,5-diisopropyl-2,4-dioxoimidazolidin-1-yl)-5,6-dihydrobenzo[f]imidazo[1,2-d] [1,4]oxazepin-9-yl)pyrrolidine-2-carboxamide], the IC50 on PI3Kα is < 5 nM. The half-maximal inhibitory concentration (IC50) with human tumor cells MCF-7 worked out at 0.074 µM. In series [1], this molecule returned a clearance of 8.76 mL/min/kg, an AUC of 18600 ng·h/mL and a maximum concentration (Cmax) of 1830 ng/mL.

In the case of `CC(C)C1C(=O)N(C2CCC2)C(=O)N1c1cn2c(n1)-c1ccc(N3CCC[C@H]3C(N)=O)cc1OCC2` (stereo partly drawn) [Example 6, (2S)-1-(2-(3-cyclobutyl-5-isopropyl-2,4-dioxoimidazolidin-1-yl)-5,6-dihydrobenzo[f]imidazo [1,2-d] [1,4]oxazepin-9-yl)pyrrolidine-2-carboxamide], the IC50 at PI3Kα was in the range of 5 to 20 nM.

`CC(C)C1C(=O)N(CC(F)(F)F)C(=O)N1c1cn2c(n1)-c1ccc(N3CCC[C@H]3C(N)=O)cc1OCC2` (stereo partly drawn) [Example 3, (2S)-1-(2-(5-isopropyl-2,4-dioxo-3-(2,2,2-trifluoroethyl)imidazolidine-1-yl)-5,6-dihydrobenzo[f]imdazo[1,2-d] [1,4]oxazepin-9-yl)pyrrolidine-2-carboxamide]: the IC50 on PI3Kα was < 5 nM.

On to `NC(=O)[C@@H]1CCCN1c1ccc2c(c1)OCCn1cc(N3C(=O)CC[C@@H]3CO)nc1-2` [Control compound 2, (2S)-1-(2-((2R)-2-(hydroxymethyl)-5-oxopyrrolidine-1-yl)-5,6-dihydrobenzo[f]imidazo[1,2-d][1,4]oxazepin-9-yl)pyrrolidine-2-carboxamide, reference compound], for which, in the series on human tumor cells MCF-7, the IC50 is 0.549 µM.
